Results: paper PMC12477080, “Polychlorinated biphenyls (PCBs) interact with drug metabolism in vivo” (Archives of Toxicology, 2025)

How the values were obtained:
CYP2B6 = assay: CYP phenotyping cocktail clinical study: efavirenz/8-OH-efavirenz metabolic ratio and its association with PCB plasma levels; conditions: linear regression of MR AUC0–8 h 8-OH-efavirenz/efavirenz (CYP2B6 activity) on PCB plasma concentration
Description: (§1) The participants were ascertained not to have any acute disease by medical history, physical examination, laboratory screening, including hematological and biochemical blood tests, and a 12-lead electrocardiogram. […] The demographic data of the subjects are summarized in Table 1 in the supplemental data. At the enrollment visit, 2 blood samples (9 ml each) were collected into ethylenediaminetetraacetic acid (EDTA)-containing tubes taken from each subject for analyzing the plasma concentrations of PCB congeners and for pharmacogenetic analysis.
(§2) Participants stayed fasted from the evening before until 3 h after drug administration. After that, a meal was provided. Water and juice were permitted but alcoholic and caffeinated beverages were not allowed from the evening before drug administration until the last blood sample was taken on the next day. Venous blood samples (9 ml each) were collected through an intravenous catheter immediately before and 0.25, 0.5, 0.75, 1, 1.5, 2, 2.5, 3, 4, 5, 6, 7, 8, and 24 h after drug administration. Blood was drawn into EDTA-coated tubes, centrifuged at 1500 g for 10 min at 4 °C, and plasma samples were subsequently stored at − 80 °C until further analysis. After completely voiding the bladder immediately before drug administration, the participants collected urine from 0 to 24 h after drug administration. After weighing the collected urine, a 10 ml aliquot of each fraction was taken.
(§3) Commercially sourced standards and internal standards were used for quantification (see Supplemental Materials). In brief, 20 µl of the plasma samples were protein-precipitated with 80 µl methanol containing all internal standards or were treated for 16 h at 37 °C with 2 µl β-glucuronidase (1,000,000 Units) for deconjugation before protein precipitation with 78 µl methanol containing internal standards. Samples were centrifuged for 20 min, at 4 °C and 17,000 × g, and 40 µl of the supernatants were diluted with 40 µl LC–MS grade water, centrifuged again for 5 min at 4 °C and 17,000 × g and 50 µl supernatant were transferred to LC–MS vials 5 µl of the samples were injected into the LC–MS system.
(§4) An Agilent 1290 Infinity II UHPLC coupled with a SCIEX QTRAP6500 + triple quadrupole mass spectrometer was used. Chromatographic separation was achieved on an Agilent Poroshell 120 EC-C18 (1.9 µm, 2.1 × 50 mm) column with A: 0.1% formic acid in water and B: methanol with a flow rate of 0.7 ml/min and a total run time of 8.5 min. Analytes were eluted using a gradient program. The following gradient steps represent gradual changes in % B over time: 5% B from 0 to 0.2 min, 30% B at 2 min, 34% B at 4.8 min, 95% B at 6.5 min, 95% B at 7.5 min and re-equilibrating to 5% B at 7.7 min and 5%B till 8.5 min. A representative chromatogram is shown in supplemental Fig. 2. The scheduled MRM mode was applied for analyte detection in both positive and negative ESI modes (Supplementary Table 4). Calibration curves were constructed with linear regression using weighted (1/x^2) models (detailed information in supplemental methods).
(§5) Partial areas under the plasma concentration–time curves from 0 to 3 h (AUC0–3 h), from 0 to 4 h (AUC0–4 h), and from 0 to 8 h (AUC0–8 h) were calculated based on measured concentrations by the linear trapezoidal rule without extrapolation. […] Metabolic ratios (MR) were calculated by dividing the partial AUC of the metabolite by the respective partial AUC of the parent drug. The MRs were used as biomarkers for the individual CYP activities of the study subjects.

[1] = Determination of PCB concentrations in plasma of HELPcB and control participants; type: in vivo; conditions: human plasma
Description: The laboratory regularly participates in round robins for the determination of PCBs in plasma (www.g-equas.de).
Plasma concentrations of PCB congeners were quantified in blood samples from all participants using gas chromatography/mass spectrometry (GC–MS) (Fig. 2A and Supplementary Table 2). A total of 19 PCB congeners were measured in control (n = 10) and HELPcB (n = 10) participants, with PCBs detected in all individuals. […] In the control group, PCB plasma concentrations primarily reflected background environmental exposure, such as dietary intake, representing the general population’s burden.

CYP2D6 = assay: CYP phenotyping cocktail clinical study: metoprolol/α-OH-metoprolol metabolic ratio and its association with PCB plasma levels; conditions: linear regression of MR AUC0–8 h α-OH-metoprolol/metoprolol (CYP2D6 activity) on PCB plasma concentration
Description: as §1, §2, §3, §4, §5

Clc1ccc(-c2cc(Cl)c(Cl)cc2Cl)cc1Cl [PCB118]
t value (CYP2B6): 1,020
β (standardized regression coefficient) (CYP2B6): 0,255
t value (CYP2B6; PM excl): 0,839
β (standardized regression coefficient) (CYP2B6; PM excl): 0,227
PCB plasma concentration, Mean [±SD] HELPcB ([1]; HELPcB (occupationally exposed) group): 0.122 ± 0.122 ng/mL
PCB plasma concentration, Geometric mean, HELPcB ([1]; HELPcB group, N 10): 0.075 ng/mL
PCB plasma concentration, Mean [±SD] all ([1]; all participants): 0.072 ± 0.099 ng/mL
PCB plasma concentration, Mean [±SD] control ([1]; control group (background exposure)): 0.022 ± 0.012 ng/mL
PCB plasma concentration, Geometric mean, Control ([1]; control group, N 10): 0.019 ng/mL
t value (CYP2D6): 2,169
β (standardized regression coefficient) (CYP2D6): 0,455
